# Experimental data reported in PubChem BioAssay AID2060610 (Molecular Pharmacology Branch, DTP, NCI, 2025).
# “And” between values parts separate entries of the source, which are not always exact repeats. Equal values may be shown once.
# Tested on: 616215-338-R-J1-PDC complex spheroids, viability % test/control
# Test: Anticancer human tumor 616215-338-R-J1-PDC patient-derived colon adenocarcinoma cell line growth inhibition [CLK]
# Details: for viability, T/C: stronger effect = lower value
# In short: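 Multi-cell-type spheroids combined patient-derived tumor cells with HUVEC endothelial cells and human mesenchymal stem cells. Paired agents were dosed in half-log steps down from about clinical Cmax, or from 10 microM where Cmax was unknown.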
# [1] = curve of first compound, second compound 0.0316 µM
# [2] = curve of first compound, second compound 0.1 µM
# [3] = curve of first compound, second compound 0.316 µM
# [4] = curve of first compound, second compound 1 µM
# [5] = curve of first compound, second compound 3.16 µM
# [6] = curve of first compound, second compound 10 µM
# [7] = second compound 0.0316 µM, first compound 0.00949 µM
# [8] = second compound 0.0316 µM, first compound 0.03 µM
# [9] = second compound 0.0316 µM, first compound 0.0949 µM
# [10] = second compound 0.0316 µM, first compound 0.3 µM
# [11] = second compound 0.1 µM, first compound 0.00949 µM
# [12] = second compound 0.1 µM, first compound 0.03 µM
# [13] = second compound 0.1 µM, first compound 0.0949 µM
# [14] = second compound 0.1 µM, first compound 0.3 µM
# [15] = second compound 0.316 µM, first compound 0.00949 µM
# [16] = second compound 0.316 µM, first compound 0.03 µM
# [17] = second compound 0.316 µM, first compound 0.0949 µM
# [18] = second compound 0.316 µM, first compound 0.3 µM
# [19] = second compound 1 µM, first compound 0.00949 µM
# [20] = second compound 1 µM, first compound 0.03 µM
# [21] = second compound 1 µM, first compound 0.0949 µM
# [22] = second compound 1 µM, first compound 0.3 µM
# [23] = second compound 3.16 µM, first compound 0.00949 µM
# [24] = second compound 3.16 µM, first compound 0.03 µM
# [25] = second compound 3.16 µM, first compound 0.0949 µM
# [26] = second compound 3.16 µM, first compound 0.3 µM
# [27] = second compound 10 µM, first compound 0.00949 µM
# [28] = second compound 10 µM, first compound 0.03 µM
# [29] = second compound 10 µM, first compound 0.0949 µM
# [30] = second compound 10 µM, first compound 0.3 µM
# 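Note: spheroids exposed to agents for 7 days.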
# 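Throughout, for viability, T/C: 100% = DMSO vehicle wells.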
structure (smiles),measurement,setting,value
C=CC(=O)Nc1cc(Nc2nccc(-c3cn(C)c4ccccc34)n2)c(OC)cc1N(C)CCN(C)C + CNC(=O)c1ccc(Nc2nc(OC3CCCC3)c3c(-c4ccc5nc(C)oc5c4)c[nH]c3n2)c(OC)c1,IC50,[1],> 300 nM
same,IC50,[2],2.07 nM
same,IC50,[3],< 0.949 nM
same,IC50,[4],< 0.949 nM
same,IC50,[5],< 0.949 nM
same,IC50,[6],< 0.949 nM
same,"viability, T/C","second compound 0.0316 µM, first compound 0.000949 µM",94.3%
same,"viability, T/C","second compound 0.0316 µM, first compound 0.003 µM",87.8%
same,"viability, T/C",[7],90.3%
same,"viability, T/C",[8],89.4%
same,"viability, T/C",[9],98.7%
same,"viability, T/C",[10],95.8%
same,"viability, T/C","second compound 0.1 µM, first compound 0.000949 µM",52.1%
same,"viability, T/C","second compound 0.1 µM, first compound 0.003 µM",51.2%
same,"viability, T/C",[11],42.3%
same,"viability, T/C",[12],36.6%
same,"viability, T/C",[13],40.9%
same,"viability, T/C",[14],28.5%
same,"viability, T/C","second compound 0.316 µM, first compound 0.000949 µM",43.9%
same,"viability, T/C","second compound 0.316 µM, first compound 0.003 µM",37.9%
same,"viability, T/C",[15],39.2%
same,"viability, T/C",[16],36.7%
same,"viability, T/C",[17],31.6%
same,"viability, T/C",[18],25.8%
same,"viability, T/C","second compound 1 µM, first compound 0.000949 µM",43.6%
same,"viability, T/C","second compound 1 µM, first compound 0.003 µM",41.9%
same,"viability, T/C",[19],39.7%
same,"viability, T/C",[20],39%
same,"viability, T/C",[21],31.8%
same,"viability, T/C",[22],24.4%
same,"viability, T/C","second compound 3.16 µM, first compound 0.000949 µM",39.3%
same,"viability, T/C","second compound 3.16 µM, first compound 0.003 µM",42.8%
same,"viability, T/C",[23],41%
same,"viability, T/C",[24],34.3%
same,"viability, T/C",[25],28%
same,"viability, T/C",[26],20.1%
same,"viability, T/C","second compound 10 µM, first compound 0.000949 µM",40.1%
same,"viability, T/C","second compound 10 µM, first compound 0.003 µM",40.7%
same,"viability, T/C",[27],33.8%
same,"viability, T/C",[28],28.8%
same,"viability, T/C",[29],25.8%
same,"viability, T/C",[30],22.7%
CCCS(=O)(=O)Nc1ccc(F)c(C(=O)c2c[nH]c3ncc(-c4ccc(Cl)cc4)cc23)c1F,"viability, T/C",compound 0.0316 µM,22.5% and 95.7%
same,"viability, T/C",compound 0.1 µM,33.6% and 96.8%
same,"viability, T/C",compound 0.316 µM,104% and 98.2%
same,"viability, T/C",compound 1 µM,96% and 95.1%
same,"viability, T/C",compound 3.16 µM,29.5% and 104%
same,"viability, T/C",compound 10 µM,0.01% and 24.1%
same,IC50,curve of compound,1590 nM and 6690 nM
CC(Nc1ccc2c(c1)OCCn1cc(N3C(=O)OCC3C(F)F)nc1-2)C(N)=O (stereo not given),"viability, T/C",compound 0.0316 µM,89.4% and 107%
same,"viability, T/C",compound 0.1 µM,99.5% and 103%
same,"viability, T/C",compound 0.316 µM,105% and 108%
same,"viability, T/C",compound 1 µM,101% and 100%
same,"viability, T/C",compound 3.16 µM,99.9% and 110%
same,"viability, T/C",compound 10 µM,90.6% and 100%
same,IC50,curve of compound,> 10000 nM
NC(=O)C(=Cn1cnc(-c2cc(C(F)(F)F)cc(C(F)(F)F)c2)n1)c1cncnc1 + CNC(=O)c1ccc(Nc2nc(OC3CCCC3)c3c(-c4ccc5nc(C)oc5c4)c[nH]c3n2)c(OC)c1,IC50,[1],651 nM
same,IC50,[2],< 9.49 nM
same,IC50,[3],< 9.49 nM
same,IC50,[4],< 9.49 nM
same,IC50,[5],< 9.49 nM
same,IC50,[6],< 9.49 nM
same,"viability, T/C",[7],84.9%
same,"viability, T/C",[8],95.5%
same,"viability, T/C",[9],96%
same,"viability, T/C",[10],77.6%
same,"viability, T/C","second compound 0.0316 µM, first compound 0.949 µM",36.6%
same,"viability, T/C","second compound 0.0316 µM, first compound 3 µM",18.4%
same,"viability, T/C",[11],45.4%
same,"viability, T/C",[12],48.2%
same,"viability, T/C",[13],34.1%
same,"viability, T/C",[14],33.1%
same,"viability, T/C","second compound 0.1 µM, first compound 0.949 µM",32.5%
same,"viability, T/C","second compound 0.1 µM, first compound 3 µM",15.8%
same,"viability, T/C",[15],34%
same,"viability, T/C",[16],30.4%
same,"viability, T/C",[17],29.7%
same,"viability, T/C",[18],25.4%
same,"viability, T/C","second compound 0.316 µM, first compound 0.949 µM",29.3%
same,"viability, T/C","second compound 0.316 µM, first compound 3 µM",12.8%
same,"viability, T/C",[19],34.5%
same,"viability, T/C",[20],33.4%
same,"viability, T/C",[21],30.5%
same,"viability, T/C",[22],26.9%
same,"viability, T/C","second compound 1 µM, first compound 0.949 µM",18.3%
same,"viability, T/C","second compound 1 µM, first compound 3 µM",7.01%
same,"viability, T/C",[23],33.5%
same,"viability, T/C",[24],35%
same,"viability, T/C",[25],27.7%
same,"viability, T/C",[26],23.3%
same,"viability, T/C","second compound 3.16 µM, first compound 0.949 µM",13.1%
same,"viability, T/C","second compound 3.16 µM, first compound 3 µM",4.39%
same,"viability, T/C",[27],31.3%
same,"viability, T/C",[28],28.5%
same,"viability, T/C",[29],28.9%
same,"viability, T/C",[30],19.7%
same,"viability, T/C","second compound 10 µM, first compound 0.949 µM",10.8%
same,"viability, T/C","second compound 10 µM, first compound 3 µM",2.88%
CC1(C)CCC(CN2CCN(c3ccc(C(=O)NS(=O)(=O)c4ccc(NCC5CCOCC5)c([N+](=O)[O-])c4)c(Oc4cnc5[nH]ccc5c4)c3)CC2)=C(c2ccc(Cl)cc2)C1 + CN1CCN(c2cc(C(=O)Nc3cc4cc(-c5cnn(C)c5)ccc4cn3)ccn2)CC1,IC50,[1],5820 nM
same,IC50,[2],4310 nM
same,IC50,[3],< 31.6 nM
same,IC50,[4],< 31.6 nM
same,IC50,[5],< 31.6 nM
same,IC50,[6],< 31.6 nM
same,"viability, T/C","second compound 0.0316 µM, first compound 0.0316 µM",105%
same,"viability, T/C","second compound 0.0316 µM, first compound 0.1 µM",106%
same,"viability, T/C","second compound 0.0316 µM, first compound 0.316 µM",102%
same,"viability, T/C","second compound 0.0316 µM, first compound 1 µM",103%
same,"viability, T/C","second compound 0.0316 µM, first compound 3.16 µM",106%
same,"viability, T/C","second compound 0.0316 µM, first compound 10 µM",1.63%
same,"viability, T/C","second compound 0.1 µM, first compound 0.0316 µM",109%
same,"viability, T/C","second compound 0.1 µM, first compound 0.1 µM",118%
same,"viability, T/C","second compound 0.1 µM, first compound 0.316 µM",110%
same,"viability, T/C","second compound 0.1 µM, first compound 1 µM",129%
same,"viability, T/C","second compound 0.1 µM, first compound 3.16 µM",67.9%
same,"viability, T/C","second compound 0.1 µM, first compound 10 µM",1.54%
same,"viability, T/C","second compound 0.316 µM, first compound 0.0316 µM",35.4%
same,"viability, T/C","second compound 0.316 µM, first compound 0.1 µM",31.4%
same,"viability, T/C","second compound 0.316 µM, first compound 0.316 µM",32%
same,"viability, T/C","second compound 0.316 µM, first compound 1 µM",26.9%
same,"viability, T/C","second compound 0.316 µM, first compound 3.16 µM",12.7%
same,"viability, T/C","second compound 0.316 µM, first compound 10 µM",1.79%
same,"viability, T/C","second compound 1 µM, first compound 0.0316 µM",0.16%
same,"viability, T/C","second compound 1 µM, first compound 0.1 µM",0.22%
same,"viability, T/C","second compound 1 µM, first compound 0.316 µM",0.2%
same,"viability, T/C","second compound 1 µM, first compound 1 µM",0.16%
same,"viability, T/C","second compound 1 µM, first compound 3.16 µM",2.45%
same,"viability, T/C","second compound 1 µM, first compound 10 µM",0.3%
same,"viability, T/C","second compound 3.16 µM, first compound 0.0316 µM",0.12%
same,"viability, T/C","second compound 3.16 µM, first compound 0.1 µM",0.14%
same,"viability, T/C","second compound 3.16 µM, first compound 0.316 µM",0.15%
same,"viability, T/C","second compound 3.16 µM, first compound 1 µM",0.12%
same,"viability, T/C","second compound 3.16 µM, first compound 3.16 µM",0.11%
same,"viability, T/C","second compound 3.16 µM, first compound 10 µM",0.62%
same,"viability, T/C","second compound 10 µM, first compound 0.0316 µM",0.13%
same,"viability, T/C","second compound 10 µM, first compound 0.1 µM",0.14%
same,"viability, T/C","second compound 10 µM, first compound 0.316 µM",0.16%
same,"viability, T/C","second compound 10 µM, first compound 1 µM",0.15%
same,"viability, T/C","second compound 10 µM, first compound 3.16 µM",3.51%
same,"viability, T/C","second compound 10 µM, first compound 10 µM",0.2%
